Measurements from US20220339135A1, “COMPOSITIONS AND METHODS FOR MODULATING AN INFLAMMATORY RESPONSE” (Enzychem Lifesciences Corporation, priority 2019, published 2022).

What was measured:
[1] = test system: intracellular ROS in HaCaT cells; assay: IMQ-induced intracellular ROS; assay type: cell-based; details: IMQ/PLAG treated cells
Procedure: HaCaT cells were divided into two groups: 1) IMQ treated group and 2) IMQ/PLAG treated group. For IMQ treated group, cells were stimulated with IMQ (5 μg/ml) for 0, 2.5, 5, 7.5, 10, 15, 30, 60, 120 minutes. For IMQ/PLAG treated group, cells were pre-incubated with PLAG (100 μg/ml) for 1 hour and then stimulated with IMQ (5 μg/ml) for 0, 2.5, 5, 7.5, 10, 15, 30, 60, 120 minutes. (A) To detect ADORA2A on the membrane surface, cells were fixed with 2% paraformaldehyde (Sigma-Aldrich) and were blocked with PBS containing 1% BSA (Gibco, Waltham, Mass., USA). They were incubated with rabbit anti-ADORA2A antibody (Thermo) and Alexa488 conjugated anti-rabbit IgG (Invitrogen) without permeabilization. (B) To detect intracellular ROS, cells were treated with FITC conjugated-CM-H2DCFDA (Invitrogen, Carlsbad, Calif., USA) for 30 min before PLAG treating. For confocal microscopy analysis, cells were washed with PBS and mounted in DAPI-containing fluorescence microscopy mounting medium (Invitrogen). Samples were analyzed with a laser scanning confocal microscope (Carl Zeiss, Oberkochen, Germany).

IMQ-induced psoriasis = assay: IMQ-induced psoriasis-like skin inflammation in mice; assay type: in vivo; details: PLAG 250 mg/kg/day orally, 5 days
Text: Vaseline (Unilever, United Kingdom) was used as a control vehicle cream. […] Control (non-treated) and IMQ-treated groups were administrated orally with the same PBS daily. Psoriasis was scored by a blinded investigator using published criteria based on the following parameters: erythema, scaling, and thickening. […] The tissue sections were stained with hematoxylin and eosin (H&E). For IHC analyses, back skin serial sections were cut and mounted on charged glass slides (Superfrost Plus; Fisher Scientific, Rochester, N.Y., USA). The sections were deparaffinized and then treated with 3% hydrogen peroxide in methanol to quench the endogenous peroxidase activity. […] The sections were incubated with the primary anti-mouse IL-17 (abcam) antibody (1:100) or rat anti-mouse neutrophil (NIMP-R14, Thermo Fisher Scientific Inc.) antibody (1:100) at 4° C. overnight. […] On Day 5, mice were sacrificed and the isolated tissues were analyzed (FIG. 10A). On Day 5, mice were sacrificed and the isolated back skin tissues of control, IMQ treated and IMQ/PLAG co-treated mice were analyzed (FIG. 10B). […] The scoring of control, IMQ treated, and IMQ/PLAG co-treated mice calculated by a blinded investigator using published criteria based on the following parameters: erythema, scaling, and thickening (FIG. 10C). IMQ-treated back skin and one ear were isolated and skin thickness was measured (FIGS. 10D and 10E). […]

[2] = test system: MIP-2, IL-6, CXCL8 in RAW 264.7 or HaCaT cells; assay: IMQ-induced chemokine release, ELISA; assay type: cell-based; details: PLAG 1, 10, 100 μg/ml, IMQ 12 hours, dose-dependent
Procedure: RAW 264.7 or HaCaT cells were divided into three groups: 1) control (non-treated) group, 2) IMQ treated group, and 3) IMQ/PLAG treated group. For IMQ treated group, cells were treated with 1, 10, 100 μg/ml of DMSO (as solvent control) for 1 hour and treated with 5 μg/mL of IMQ for 12 hours. For IMQ/PLAG treated group, cells were treated with 1, 10, 100 μg/ml of PLAG for 1 hour and treated with 5 μg/mL of IMQ for 12 hours. MIP-2 (A), IL-6 (B) and CXCL8 (C) in the culture supernatants were analyzed with the cognate antibody using ELISA kit. Modulation of CXCL8 expression in the IMQ treated HaCaT cells by MAPK inhibitors, SCH 772984 (ERK inhibitor, (D)), SP600125 (JNK inhibitor, (E)) and SB203580 (p38 inhibitor, (F)) was evaluated using ELISA kit (BD bioscience, New Jersey, USA) according to the manufacturer's instructions. The cytokine levels were estimated by interpolation from a standard curve using an ELISA reader (Molecular Devices, Sunnyvale, USA) at 450 nm.

## CCCCC/C=C\C/C=C\CCCCCCCC(=O)OC(COC(C)=O)COC(=O)CCCCCCCCCCCCCCC (racemic) [PLAG, 1-palmitoyl-2-linoleoyl-3-acetylglycerol]
[1]
  ROS formation starts: 2.5 min
  ROS returns to homeostatic levels: 10 min
IMQ-induced psoriasis
  IMQ-induced psoriasis symptoms: effectively resolved
[2]
  MIP-2, IL-6, CXCL8 induced by IMQ: gradually decreased
